According to paper PMC6234689 (International Journal of Retina and Vitreous, 2018):

How the values were obtained:
rabbit retina [1] = details: intravitreal 40 µg/50 µL, 24, 48, 72 and 168 h
Method: (§1) Baseline electroretinogram (ERG) was obtained for rabbits prior the intravitreal injection as the method described below. […] The effective dose was calculated from the previous study performed in our lab.

rabbit retina [2] = assay: Fundus imaging after intravitreal injection; format: in vivo, New Zealand rabbits; details: intravitreal 40 µg/0.05 ml, observational period of 7 days
Method: as §1
Following Electroretinogram (ERG) study, rabbit retina was focused and fundus images of both eyes were recorded using streampix software using MICRON III rodent imaging system (Phoenix Lab, USA) after subjecting them for ERG.

[3] = Stability of intravitreal formulation after thermal sterilization by autoclaving; format: physicochemical; details: 0.08% w/v in sterile saline, concentration before and after autoclaving
From the text: After checking it for pH, it was filled, sealed in glass ampoules and subjected for autoclaving.

[4] = rabbit, intravitreal 40 µg/50 µL
[5] = system: progression of retinopathy; set-up: method as in PMID 9726242; details: EUCLID Study, diabetic patients; cited from earlier work
in vivo = details: New Zealand, rabbit, 40 µg

NCCCC[C@H](N[C@@H](CCc1ccccc1)C(=O)O)C(=O)N1CCC[C@H]1C(=O)O [lisinopril]
'a' and 'b' wave amplitude of ERG compared to baseline (rabbit retina [1]): No changes were observed | morphological changes in the retina on fundus images (rabbit retina [2]): no significant morphological changes | stability of formulation after thermal sterilization by autoclaving [3]: stable | lisinopril concentration in retina-choroid (highest) ([4]; at 1 h): 7 µg | lisinopril concentration in the vitreous humour (highest) ([4]; at 1 h): 14.52 µg | maximum concentration in sclera ([4]; at 2 h): 6.6 µg | reduction of the risk of progression of retinopathy [5]: approximately 50% | half-life (in vivo; in vivo): 12.6 h | half-life (in vivo; vitreous humour): 41.5 h
